Measurements: ChEMBL document CHEMBL5727600, “1,4-dicarbonyl-piperidyl derivatives” (2020)

Legend:
[1] = biological target: T1, Poly [ADP-ribose] polymerase tankyrase-1 (Homo sapiens, UniProt O95271); assay: Biochemical Activity Assay: TNKS 1 and 2: The activity ELISA is performed in 384 well Glutathione coated microtiter plates (Express capture Glutathione coated plate, Biocat, Heidelberg, Germany). The plates are pre-equilibrated with PBS. Then the plates are incubated with 50 μl 20 ng/well GST-tagged Tnks-1 (1023-1327 aa, prepared in-house), respectively GST-tagged Tnks-2 (873-1166 aa, prepared in-house) in assay buffer (50 mM HEPES, 4 mM Mg-chloride, 0.05% Pluronic F-68, 2 mM DTT, pH 7.7) overnight at 4° C. The plates are washed 3 times with PBS-Tween-20. The wells are blocked by incubation at room temperature for 20 minutes with 50 μl blocking buffer (PBS, 0.05% Tween-20, 0.5% BSA). Afterwards the plates are washed 3 times with PBS-Tween-20. The enzymatic reaction is performed in 50 μl reaction solution (50 mM HEPES, 4 mM Mg-chloride, 0.05% Pluronic F-68, 1.4 mM DTT, 0.5% DMSO, pH 7.7) with 10 μM bio-NAD (Biolog, Life science Inst., Bremen, Germany) as co-substrate in the absence or presence of the test compound (10 dilution concentrations) for 1 hour at 30° C. The reaction is stopped by 3 times washing with PBS-Tween-20. For the detection 50 μl of 20 ng/μl Streptavidin, HRP conjugate (MoBiTec, Göttingen, Germany) in PBS/0.05% Tween-20/0.01% BSA are added and the plates are incubated for 30 minutes at room temperature. […]
T1 sequence (O95271 whole entry): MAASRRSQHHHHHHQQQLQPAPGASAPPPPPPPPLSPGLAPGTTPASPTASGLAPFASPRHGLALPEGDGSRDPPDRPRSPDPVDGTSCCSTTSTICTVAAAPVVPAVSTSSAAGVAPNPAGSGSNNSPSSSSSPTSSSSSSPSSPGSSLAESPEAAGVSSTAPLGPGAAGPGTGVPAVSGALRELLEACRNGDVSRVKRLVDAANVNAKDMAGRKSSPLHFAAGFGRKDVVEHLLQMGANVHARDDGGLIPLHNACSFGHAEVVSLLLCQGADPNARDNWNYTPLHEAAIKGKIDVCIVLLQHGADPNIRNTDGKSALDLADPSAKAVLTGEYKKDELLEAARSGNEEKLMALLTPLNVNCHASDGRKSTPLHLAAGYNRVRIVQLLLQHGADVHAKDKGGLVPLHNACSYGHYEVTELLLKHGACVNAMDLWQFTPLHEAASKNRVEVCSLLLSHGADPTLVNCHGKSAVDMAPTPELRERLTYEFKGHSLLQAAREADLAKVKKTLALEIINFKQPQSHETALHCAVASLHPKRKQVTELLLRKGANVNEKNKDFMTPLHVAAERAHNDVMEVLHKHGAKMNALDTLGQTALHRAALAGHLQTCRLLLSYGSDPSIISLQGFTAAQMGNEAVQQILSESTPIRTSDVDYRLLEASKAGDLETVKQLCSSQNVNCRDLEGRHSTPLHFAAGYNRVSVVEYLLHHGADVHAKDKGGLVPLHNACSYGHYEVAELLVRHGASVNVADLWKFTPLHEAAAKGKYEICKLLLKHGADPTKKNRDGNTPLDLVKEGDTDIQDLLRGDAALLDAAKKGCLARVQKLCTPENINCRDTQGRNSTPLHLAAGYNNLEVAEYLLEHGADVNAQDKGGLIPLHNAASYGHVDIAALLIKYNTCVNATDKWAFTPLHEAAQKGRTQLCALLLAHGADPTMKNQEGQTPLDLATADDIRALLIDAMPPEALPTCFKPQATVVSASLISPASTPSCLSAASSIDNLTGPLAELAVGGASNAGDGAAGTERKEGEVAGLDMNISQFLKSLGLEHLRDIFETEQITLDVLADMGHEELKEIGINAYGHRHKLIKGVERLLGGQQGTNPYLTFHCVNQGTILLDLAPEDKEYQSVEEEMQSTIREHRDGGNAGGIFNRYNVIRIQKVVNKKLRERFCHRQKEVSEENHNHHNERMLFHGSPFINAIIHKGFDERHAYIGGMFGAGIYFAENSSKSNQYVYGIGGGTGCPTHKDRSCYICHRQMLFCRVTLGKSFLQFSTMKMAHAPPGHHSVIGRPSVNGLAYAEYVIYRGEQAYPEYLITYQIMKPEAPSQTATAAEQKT

[2] = biological target: T2, Poly [ADP-ribose] polymerase tankyrase-2 (Homo sapiens, UniProt Q9H2K2); assay: Biochemical Activity Assay: TNKS 1 and 2: The activity ELISA is performed in 384 well Glutathione coated microtiter plates (Express capture Glutathione coated plate, Biocat, Heidelberg, Germany). The plates are pre-equilibrated with PBS. Then the plates are incubated with 50 μl 20 ng/well GST-tagged Tnks-1 (1023-1327 aa, prepared in-house), respectively GST-tagged Tnks-2 (873-1166 aa, prepared …
T2 sequence (Q9H2K2 whole entry): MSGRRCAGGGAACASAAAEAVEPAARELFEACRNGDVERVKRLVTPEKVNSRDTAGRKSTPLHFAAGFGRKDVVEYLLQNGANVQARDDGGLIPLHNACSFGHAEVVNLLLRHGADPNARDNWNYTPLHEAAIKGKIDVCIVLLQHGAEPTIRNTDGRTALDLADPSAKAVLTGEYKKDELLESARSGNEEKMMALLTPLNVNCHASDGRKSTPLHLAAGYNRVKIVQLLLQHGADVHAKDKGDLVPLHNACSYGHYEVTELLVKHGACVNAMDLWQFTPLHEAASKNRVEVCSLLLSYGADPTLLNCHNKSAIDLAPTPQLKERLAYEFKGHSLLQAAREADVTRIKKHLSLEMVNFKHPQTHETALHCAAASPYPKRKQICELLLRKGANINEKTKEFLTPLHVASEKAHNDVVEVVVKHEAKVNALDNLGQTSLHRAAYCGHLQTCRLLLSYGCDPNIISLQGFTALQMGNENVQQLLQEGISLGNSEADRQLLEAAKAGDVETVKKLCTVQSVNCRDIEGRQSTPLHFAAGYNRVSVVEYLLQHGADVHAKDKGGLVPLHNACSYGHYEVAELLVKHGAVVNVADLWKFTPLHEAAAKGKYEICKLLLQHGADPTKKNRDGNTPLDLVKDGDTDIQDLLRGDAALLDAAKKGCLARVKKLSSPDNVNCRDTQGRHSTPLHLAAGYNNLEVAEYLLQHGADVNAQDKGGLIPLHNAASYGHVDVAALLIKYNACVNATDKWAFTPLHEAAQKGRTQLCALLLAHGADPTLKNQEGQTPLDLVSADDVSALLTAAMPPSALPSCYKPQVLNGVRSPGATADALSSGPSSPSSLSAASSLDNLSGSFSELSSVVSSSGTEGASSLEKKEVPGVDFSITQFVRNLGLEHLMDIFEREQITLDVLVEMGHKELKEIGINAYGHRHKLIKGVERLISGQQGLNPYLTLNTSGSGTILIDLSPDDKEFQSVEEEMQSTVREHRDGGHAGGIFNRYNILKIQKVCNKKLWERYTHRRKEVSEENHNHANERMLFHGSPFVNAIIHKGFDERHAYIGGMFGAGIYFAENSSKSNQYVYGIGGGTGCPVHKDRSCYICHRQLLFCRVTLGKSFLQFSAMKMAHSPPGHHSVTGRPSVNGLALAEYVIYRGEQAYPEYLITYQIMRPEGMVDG

Structure (SMILES): Cc1cc(F)cc2c(=O)[nH]c(C[C@H](C)CC(=O)N3CCC(C(=O)c4cnn(C)c4)CC3)nc12
- IC50 [1]: 0.31 nM
- IC50 [2]: 0.2 nM

Structure (SMILES): Cc1cc(F)cc2c(=O)[nH]c(C[C@@H](C)CC(=O)N3CCC(C(=O)c4cnn(C)c4)CC3)nc12
- IC50 [1]: 0.66 nM
- IC50 [2]: 0.59 nM
